Here are results for 26 compounds from patent US20230167073A1 (Teijin Pharma Limited, priority 2020, published 2023).

For the experiment, the target named is T1, Human TRPC6 (Homo sapiens, UniProt Q9Y210).
T1 construct: expressed in transfected cells
T1 sequence (Q9Y210 1-931): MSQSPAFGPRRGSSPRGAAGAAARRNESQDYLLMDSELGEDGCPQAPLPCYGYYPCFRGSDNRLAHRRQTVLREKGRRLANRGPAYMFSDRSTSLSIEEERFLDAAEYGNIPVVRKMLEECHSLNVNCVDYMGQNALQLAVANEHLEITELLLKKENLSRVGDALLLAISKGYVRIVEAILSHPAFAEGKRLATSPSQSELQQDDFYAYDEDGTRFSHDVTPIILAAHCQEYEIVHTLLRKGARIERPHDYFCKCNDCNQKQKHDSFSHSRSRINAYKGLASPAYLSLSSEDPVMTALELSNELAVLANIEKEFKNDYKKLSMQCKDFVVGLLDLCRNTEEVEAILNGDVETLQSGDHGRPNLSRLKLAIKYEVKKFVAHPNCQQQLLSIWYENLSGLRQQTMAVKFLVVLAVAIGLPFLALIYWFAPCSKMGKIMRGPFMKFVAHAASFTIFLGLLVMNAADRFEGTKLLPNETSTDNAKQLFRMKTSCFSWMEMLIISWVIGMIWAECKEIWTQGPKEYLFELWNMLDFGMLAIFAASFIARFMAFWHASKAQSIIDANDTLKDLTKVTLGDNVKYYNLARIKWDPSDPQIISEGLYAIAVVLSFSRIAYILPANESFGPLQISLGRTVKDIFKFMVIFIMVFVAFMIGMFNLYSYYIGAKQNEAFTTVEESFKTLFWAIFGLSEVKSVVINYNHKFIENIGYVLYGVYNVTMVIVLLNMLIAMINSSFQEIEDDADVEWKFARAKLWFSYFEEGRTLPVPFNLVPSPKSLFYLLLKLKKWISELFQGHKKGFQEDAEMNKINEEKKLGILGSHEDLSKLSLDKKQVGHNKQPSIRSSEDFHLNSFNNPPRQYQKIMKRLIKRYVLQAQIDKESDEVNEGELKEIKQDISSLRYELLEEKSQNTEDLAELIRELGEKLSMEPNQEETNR
Description: Evaluation of TRPC6 channel inhibitory activity (1), FLIPR Calcium 5 Assay Kit, OAG stimulation (Compound Nos. 1-1293). It counts as cell-based. To be noted: Human TRPC6 stably-expressing cells, OAG 30 μM, FLIPR Calcium 5 Assay Kit; read-out: Inhibitory activity (pIC50 class) (converted). An outline of the steps: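 Stable human TRPC6 line; fluorescent Ca2+ dye loading, then 20 min compound exposure before 30 μM OAG trigger. Peak-minus-baseline signal converted to % inhibition against untreated and unstimulated wells; potency given as pIC50 band.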

On to `N#Cc1ccc(-c2ccc(CCN)cn2)c(Oc2nnc(C(F)(F)F)s2)c1` [Compound No. 712, 4-[5-(2-Aminoethyl)pyridin-2-yl]-3-[[5-(trifluoromethyl)-1,3,4-thiadiazol-2-yl]oxy]benzonitrile], for which the IC50 was 10 to 1000 nM. For the compound `Cn1nc(C(F)(F)F)cc1Oc1cc(C#N)ccc1-c1ncc(CN)cn1` [Compound No. 811, 4-[5-(Aminomethyl)pyrimidin-2-yl]-3-[2-methyl-5-(trifluoromethyl)pyrazol-3-yl]oxybenzonitrile], the IC50 is below 10 nM.

With `CCN(CC(F)F)c1cc(Oc2cc(C#N)ccc2-c2ncc(CCN)cn2)n(C)n1` [Compound No. 875, 4-[5-(2-Aminoethyl)pyrimidin-2-yl]-3-[5-[2,2-difluoroethyl(ethyl)amino]-2-methylpyrazol-3-yl]oxybenzonitrile], the IC50 is below 10 nM.

On to `Cn1nc(-c2cnccn2)cc1Oc1cc(C#N)ccc1-c1ncc(CN)cn1` [Compound No. 931, 4-[5-(Aminomethyl)pyrimidin-2-yl]-3-(2-methyl-5-pyrazin-2-ylpyrazol-3-yl)oxybenzonitrile], for which the IC50 was 10 to 1000 nM.

In the case of `Cc1nn(CC(C)C)cc1Oc1cc(F)ccc1-c1ncc(CCN)cn1` [Compound No. 966, 2-[2-[4-Fluoro-2-[3-methyl-1-(2-methylpropyl)pyrazol-4-yl]oxyphenyl]pyrimidin-5-yl]ethanamine], the IC50 is below 10 nM.

Turning to `Cc1c(Oc2cc(F)ccc2-c2ncc(CCN)cn2)cnn1CC(C)C` [Compound No. 967, 2-[2-[4-fluoro-2-[5-methyl-1-(2-methylpropyl)pyrazol-4-yl]oxyphenyl]pyrimidin-5-yl]ethanamine], the IC50 is 10 to 1000 nM. The figure for `Cn1nc(N2CCOCC2)cc1C(=O)c1cc(C#N)ccc1-c1ncc(CN)cn1` [Compound No. 1028, 4-[5-(Aminomethyl)pyrimidin-2-yl]-3-(2-methyl-5-morpholin-4-ylpyrazole-3-carbonyl)benzonitrile] is below 10 nM. Regarding `Cn1nc(C(C)(C)C)cc1C(=O)c1cc(C#N)ccc1-c1ncc(CN)cn1` [Compound No. 1030, 4-[5-(Aminomethyl)pyrimidin-2-yl]-3-(5-tert-butyl-2-methylpyrazole-3-carbonyl)benzonitrile], the IC50 is below 10 nM. Under `Cc1cc(C(=O)c2cc(C#N)ccc2-c2ncc(CCN)cn2)cc(N2CCOCC2)n1` [Compound No. 1042, 4-[5-(2-Aminoethyl)pyrimidin-2-yl]-3-(2-methyl-6-morpholin-4-ylpyridine-4-carbonyl)benzonitrile] stands below 10 nM. Under `Cc1nc(N2CCOCC2)sc1C(=O)c1cc(C#N)ccc1-c1ncc(CN)cn1` [Compound No. 1064, 4-[5-(Aminomethyl)pyrimidin-2-yl]-3-(4-methyl-2-morpholin-4-yl-1,3-thiazole-5-carbonyl)benzonitrile] stands 10 to 1000 nM; under `N#Cc1ccc(-c2ccc(CCN)cn2)c(Cn2cnc(-c3ccccc3)c2)c1` [Compound No. 1131, 4-[5-(2-Aminoethyl)pyridin-2-yl]-3-[(4-phenylimidazol-1-yl)methyl]benzonitrile], below 10 nM. Regarding `Cc1nc(CN2CCCCC2)cn1Cc1cc(C#N)ccc1-c1ncc(CCN)cn1` [Compound No. 1179, 4-[5-(2-Aminoethyl)pyrimidin-2-yl]-3-[[2-methyl-4-(piperidin-1-ylmethyl)imidazol-1-yl]methyl]benzonitrile], the IC50 is above 1000 nM. `N#Cc1ccc(-c2ncc(CCN)cn2)c(Cn2cc(C3CC3)nn2)c1` [Compound No. 1187, 4-[5-(2-Aminoethyl)pyrimidin-2-yl]-3-[(4-cyclopropyltriazol-1-yl)methyl]benzonitrile]: the IC50 is below 10 nM. Under `CC(C)Cn1cc(Cc2cc(C#N)ccc2-c2ncc(CCN)cn2)cn1` [Compound No. 1195, 4-[5-(2-Aminoethyl)pyrimidin-2-yl]-3-[[1-(2-methylpropyl)pyrazol-4-yl]methyl]benzonitrile] stands below 10 nM.

Take `N#Cc1ccc(-c2ncc(CCN)cn2)c(Cn2cc(N3CCCC3)cn2)c1` [Compound No. 1198, 4-[5-(2-Aminoethyl)pyrimidin-2-yl]-3-[(4-pyrrolidin-1-ylpyrazol-1-yl)methyl]benzonitrile]: the IC50 was 10 to 1000 nM. Under `Cc1nc(C(C)c2cc(C#N)ccc2-c2ccc(CCN)cc2)cc(N2CCOCC2)n1` (centres unmarked) [Compound No. 1226, 4-[4-(2-Aminoethyl)phenyl]-3-[1-(2-methyl-6-morpholin-4-ylpyrimidin-4-yl)ethyl]benzonitrile] stands 10 to 1000 nM; under `Cc1nc(N2CCOCC2)cc(C2(c3cc(C#N)ccc3-c3ccc(CCN)cc3)CC2)n1` [Compound No. 1227, 4-[4-(2-Aminoethyl)phenyl]-3-[1-(2-methyl-6-morpholin-4-ylpyrimidin-4-yl)cyclopropyl]benzonitrile], 10 to 1000 nM. Under `COC(c1cc(-c2nccs2)no1)c1cc(C#N)ccc1-c1ccc(CCN)cc1` (centres unmarked) [Compound No. 1232, 4-[4-(2-Aminoethyl)phenyl]-3-[methoxy-[3-(1,3-thiazol-2-yl)-1,2-oxazol-5-yl]methyl]benzonitrile] stands above 1000 nM; under `Cn1nc(C(C)(C)C)cc1C(OCC#N)c1cc(C#N)ccc1-c1ncc(CCN)cn1` (centres unmarked) [Compound No. 1237, 4-[5-(2-Aminoethyl)pyrimidin-2-yl]-3-[(5-tert-butyl-2-methylpyrazol-3-yl)-(cyanomethoxy)methyl]benzonitrile], below 10 nM; under `N#Cc1ccc(-c2ccc(CCN)cc2)c(Sc2cnnc(N3CCCCC3)c2)c1` [Compound No. 1240, 4-[4-(2-Aminoethyl)phenyl]-3-(6-piperidin-1-ylpyridazin-4-yl)sulfanylbenzonitrile], below 10 nM. The figure for `N#Cc1ccc(-n2cc(CCN)cn2)c(Sc2cnnc(N3CCCCC3)c2)c1` [Compound No. 1246, 4-[4-(2-Aminoethyl)pyrazol-1-yl]-3-(6-piperidin-1-ylpyridazin-4-yl)sulfanylbenzonitrile] is 10 to 1000 nM; for `N#Cc1ccc(-c2ncc(CCN)cn2)c([S+]([O-])c2cnnc(N3CCCCC3)c2)c1` (centres unmarked) [Compound No. 1276, 4-[5-(2-Aminoethyl)pyrimidin-2-yl]-3-(6-piperidin-1-ylpyridazin-4-yl)sulfinylbenzonitrile] it is above 1000 nM; for `Cn1nc(-c2ccccc2)cc1Oc1cc(C#N)ncc1-c1ccc(CCN)cn1` [Compound No. 1277, 5-[5-(2-Aminoethyl)pyridin-2-yl]-4-(2-methyl-5-phenylpyrazol-3-yl)oxypyridine-2-carbonitrile] it is 10 to 1000 nM. With `Cn1nc(-c2ccccc2)cc1Oc1nc(C#N)ccc1-c1ccc(CCN)cn1` [Compound No. 1279, 5-[5-(2-Aminoethyl)pyridin-2-yl]-6-(2-methyl-5-phenylpyrazol-3-yl)oxypyridine-2-carbonitrile], the IC50 was below 10 nM. `Cn1nc(-c2ccccn2)cc1Oc1cc(C#N)cnc1-c1ccc(CN)cn1` [Compound No. 1289, 6-[5-(Aminomethyl)pyridin-2-yl]-5-(2-methyl-5-pyridin-2-ylpyrazol-3-yl)oxypyridine-3-carbonitrile]: the IC50 is above 1000 nM. As for `Cc1nc(Oc2cc(C#N)ccc2-c2ncc(CCN)cn2)cc(N2CC(F)(F)C2)n1` [compound 296, 4-[5-(2-aminoethyl)pyrimidin-2-yl]-3-[6-(3,3-difluoroazetidin-1-yl)-2-methylpyrimidin-4-yl]oxybenzonitrile], the IC50 is below 10 nM.
